From ChEMBL document CHEMBL3352790, “Small molecule ghrelin receptor inverse agonists and antagonists” (J Med Chem, 2014)
Blank lines part the entries; values can stand above or below the molecule they belong to.

Legend:
[1] = test system: Mus musculus; assay: Reduction in food intake in C57BL/6J mouse at 30 mg/kg, ip after 2 hrs; type: functional; conditions: route intraperitoneal
[2] = Unbound fraction rat brain; type: ADME, tissue-based
[3] = molecular target: T1, Growth hormone secretagogue receptor type 1 (Homo sapiens, UniProt Q92847); assay: Antagonist activity against human ghrelin receptor by FLIPR assay
[4] = molecular target: T1, Growth hormone secretagogue receptor type 1; assay: Binding affinity to human ghrelin receptor by receptor binding assay
[5] = Oral bioavailability in rat; type: ADME, organism-based; conditions: in vivo
[6] = species on record: Mus musculus; assay: Reduction in fat content in mouse; type: functional; design: scale not given: the % may be the effect or the level left

T1 sequence (Q92847 whole entry): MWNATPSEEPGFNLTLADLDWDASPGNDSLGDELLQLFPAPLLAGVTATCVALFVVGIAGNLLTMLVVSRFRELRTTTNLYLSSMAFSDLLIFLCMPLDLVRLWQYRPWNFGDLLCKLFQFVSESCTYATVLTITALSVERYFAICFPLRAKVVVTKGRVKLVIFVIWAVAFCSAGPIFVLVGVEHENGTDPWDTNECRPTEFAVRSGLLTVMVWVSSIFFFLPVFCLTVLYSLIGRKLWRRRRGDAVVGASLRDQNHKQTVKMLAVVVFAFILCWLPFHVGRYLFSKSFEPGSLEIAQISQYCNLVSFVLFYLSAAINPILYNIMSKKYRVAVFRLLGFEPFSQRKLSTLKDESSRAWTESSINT

Structure (SMILES): CC(NC(=O)N(Cc1ccccc1Cl)C1CCN(C)CC1)c1cccc(Cl)c1Cl (configuration not stated)
- inhibition in vivo at 30 mg/kg [1]: 70%

- Fu [2]: 0.2%
- IC50 [3]: 6.31 nM
Structure (SMILES): CN1CCN([C@@H](C(=O)NNc2cc(C(F)(F)F)cc(C(F)(F)F)c2)c2ccccc2Cl)CC1

- Ki [4]: 15 nM
- bioavailability [5]: 63%
Structure (SMILES): CCN(CC)CCCS(=O)(=O)N[C@H](CCc1ccccc1)c1nc(-c2ccc(OC)cc2)n[nH]1
- Activity [6]: 50%

- IC50 [3]: 3.98 nM
Structure (SMILES): O=C(NNc1cc(C(F)(F)F)cc(C(F)(F)F)c1)[C@@H](c1cccnc1)N1CCN2CCC[C@@H]2C1
